According to paper PMC12323867 (RSC Medicinal Chemistry, 2025):

Legend:
LSD1 = details: evaluated not part of the CoREST complex; read-out: LSD1 IC50; cited from earlier work
H3K4me2 in HCT116 cells = experiment: Histone methylation H3K4me2 by western blot; type: cell-based, human; details: HCT116, 0.1–10 μM, 24 hours, H3K4me2 antibody
Protocol: We next screened 25–33 and SP2509 over a concentration range of 0.1–10 μM in HCT116 cells (obtained from ATCC, CCL-247) and determined LSD1 abundance after 24 hours with an antibody for LSD1 (Fig. S4 ^†). […] Using the same conditions, we also determined the effects of SP2509, 25, 27, 28, 30 and 31 on histone H3 lysine 4 dimethyl (H3K4me2) a validated substrate for LSD1 using a specific antibody for H3K4me2 (Fig. S4 ^†).
Compounds 39–41, 49, 52 and 54 were screened for LSD1 degradation in HCT116 cells using a specific antibody for LSD1. This was performed side-by-side with TCP. Compounds were tested at concentration ranges of 0.2–20 μM and LSD1 abundance was quantified at 24 hours (Fig. S5 ^†). 49, 52 and 54 were also evaluated at 48 and 72 hours. […] We also determined the effects of these compounds on the histone methyl marker H3K4me2 (Fig. S5 and S6 ^†).
(§1) 2.5 Protocols for LSD1 degradation and histone methylation in HCT116 cells HCT116 human colon carcinoma cells were grown in Dulbecco’s Modified Eagle Medium (DMEM) supplemented with Fetal Bovine Serum (FBS, 10% final concentration) and 1x glutamine/penicillin/streptomycin. Cells were incubated at 37 °C and 5% CO2. Cells were treated with compounds (0.1-20 µM) with a final DMSO volume of 0.04%. DMSO (0.04%) treated and untreated (WT) cells were included as controls.
(§2) HCT116 cells were seeded into six well plates (400000 cells per well) and after requisite compound treatment time (24h, 48h, 72h) cells were harvested and either snap-frozen in liquid nitrogen or lysed in lysis buffer (50mM Tris-HCl, 150 mM NaCl, 0.5% NP-40, 0.5% Triton X-100 + protease inhibitor) on ice for 30 mins. This was centrifuged (15000 rpm, 4 °C, 15 mins) and the supernatant collected.
(§3) H2SO4 (0.4 M, equal volume) was added to the pellets for histone extraction and the tubes incubated overnight at 4 °C. Following this, the histone extract was centrifuged (15000 rpm, 4 °C, 15 mins) and the supernatant collected. Protein concentrations of whole cell extract were quantified via Bradford Assay using BIO-RAD Protein Assay Dye Reagent Concentrate.
(§4) Western blots were run on NuPAGE 4-12% Bis-Tris gels, with 30 µg of protein (whole cell extract) or an equivalent volume of histone extract loaded per lane, with all extracts dyed with 4x NuPAGE LDS Sample Buffer. PageRuler Plus Prestained Ladder was used as a reference. Gel electrophoresis was carried out at 140 V for 60-90 mins, following which the proteins were transferred onto nitrocellulose membrane at 30 V for 60 mins. Membranes were blocked in LI-COR Intercept Blocking Buffer overnight at RT on a roller, following which the membrane was probed with primary antibodies for 1 h at RT. The membrane was washed with PBS + 0.1% Tween (3 x 10 mins), then incubated with secondary antibodies for 50 mins at RT. The membrane was washed again (PBS Tween 2 x 10 mins, PBS 1 x 10 mins) following which the blot was visualised with the Odyssey Infrared Imaging System. Image processing and quantification was performed with ImageStudio Lite. […]
(§5) a-tubulin (mouse) – Sigma, t5168 (1:10000 dilution)

LSD1 in HCT116 cells = target: T1, LSD1 in HCT116 cells (Homo sapiens, UniProt O60341); experiment: LSD1 degradation (LSD1 abundance) by western blot; type: cell-based; details: HCT116, 0.1–10 μM, 24 hours, LSD1 antibody
T1 construct: host or cells: HCT116
Protocol: Using the same conditions, we also determined the effects of SP2509, 25, 27, 28, 30 and 31 on histone H3 lysine 4 dimethyl (H3K4me2) a validated substrate for LSD1 using a specific antibody for H3K4me2 (Fig. S4 ^†).
Compounds were tested at concentration ranges of 0.2–20 μM and LSD1 abundance was quantified at 24 hours (Fig. S5 ^†). 49, 52 and 54 were also evaluated at 48 and 72 hours. […] We also determined the effects of these compounds on the histone methyl marker H3K4me2 (Fig. S5 and S6 ^†).
as §1, with “with compounds (0.1-20 µM) with a final DMSO volume of 0.04%. DMSO (0.04%) treated and untreated (WT) cells were included as controls.” left out
untreated (WT) cells were included as controls.
as §2
as §3, with “Concentrate. […]” for “Concentrate.”
as §4, with “or” for “Western blots were run on NuPAGE 4-12% Bis-Tris gels, with 30 µg of protein (whole cell extract) or”
as §5

## C/C(=N\NC(=O)c1cccc(S(=O)(=O)N2CCOCC2)c1)c1cc(Cl)ccc1O [SP2509, reference compound]
LSD1
  IC50: 13 nM
H3K4me2 in HCT116 cells
  H3K4me2 abundance: no increase in H3K4me2
LSD1 in HCT116 cells
  LSD1 abundance (degradation): no degradation or change in LSD1 levels
